Measured values from patent US20090221715A1, “NOVEL POLYMORPH OF ATOVAQUONE” (priority 2008, published 2009).

assay: Bulk density and tapped density comparison of atovaquone crystalline forms; assay type: physicochemical; conditions: powder of the crystalline form

With `O=C1C(O)=C([C@H]2CC[C@H](c3ccc(Cl)cc3)CC2)C(=O)c2ccccc21` [Form I (ATO-8094P), trans-2-[4-(4-chlorophenyl)cyclohexyl]-3-hydroxy-1,4-naphthoquinone] the Bulk density was 0.4802 g/mL.
`O=C1C(O)=C([C@H]2CC[C@H](c3ccc(Cl)cc3)CC2)C(=O)c2ccccc21` [Form III (ATO-8110), trans-2-[4-(4-chlorophenyl)cyclohexyl]-3-hydroxy-1,4-naphthoquinone] gave a Bulk density of 0.2975 g/mL.
In the case of `O=C1C(O)=C([C@H]2CC[C@H](c3ccc(Cl)cc3)CC2)C(=O)c2ccccc21` [Form IPCA-ATO (ATO-8099), trans-2-[4-(4-chlorophenyl)cyclohexyl]-3-hydroxy-1,4-naphthoquinone], the Bulk density is reported as 0.2353 g/mL.

Work on `O=C1C(O)=C([C@H]2CC[C@H](c3ccc(Cl)cc3)CC2)C(=O)c2ccccc21` [Form I (ATO-8094P), trans-2-[4-(4-chlorophenyl)cyclohexyl]-3-hydroxy-1,4-naphthoquinone] yielded a Tapped density of 0.6402 g/mL.
For `O=C1C(O)=C([C@H]2CC[C@H](c3ccc(Cl)cc3)CC2)C(=O)c2ccccc21` [Form III (ATO-8110), trans-2-[4-(4-chlorophenyl)cyclohexyl]-3-hydroxy-1,4-naphthoquinone], the Tapped density was 0.4010 g/mL.
In the case of `O=C1C(O)=C([C@H]2CC[C@H](c3ccc(Cl)cc3)CC2)C(=O)c2ccccc21` [Form IPCA-ATO (ATO-8099), trans-2-[4-(4-chlorophenyl)cyclohexyl]-3-hydroxy-1,4-naphthoquinone], the Tapped density is reported as 0.3801 g/mL.
